{"source": "patent US4738970A", "about": "“Benzimidazolyl-thio-tetrahydroquinolines and anti-peptic ulcer compositions containing the same” (Otsuka Pharmaceutical Co., Ltd., priority 1984, dated 1988)", "key": {"H^+ -K^+ -ATPase": {"biological_target": "T1, H^+ -K^+ -ATPase (Sus scrofa, UniProt P19156)", "T1 construct": "which was prepared from the stomach of swine; from tissue; host or cells: stomach of swine", "T1 sequence (P19156 2-1034 limits assumed)": "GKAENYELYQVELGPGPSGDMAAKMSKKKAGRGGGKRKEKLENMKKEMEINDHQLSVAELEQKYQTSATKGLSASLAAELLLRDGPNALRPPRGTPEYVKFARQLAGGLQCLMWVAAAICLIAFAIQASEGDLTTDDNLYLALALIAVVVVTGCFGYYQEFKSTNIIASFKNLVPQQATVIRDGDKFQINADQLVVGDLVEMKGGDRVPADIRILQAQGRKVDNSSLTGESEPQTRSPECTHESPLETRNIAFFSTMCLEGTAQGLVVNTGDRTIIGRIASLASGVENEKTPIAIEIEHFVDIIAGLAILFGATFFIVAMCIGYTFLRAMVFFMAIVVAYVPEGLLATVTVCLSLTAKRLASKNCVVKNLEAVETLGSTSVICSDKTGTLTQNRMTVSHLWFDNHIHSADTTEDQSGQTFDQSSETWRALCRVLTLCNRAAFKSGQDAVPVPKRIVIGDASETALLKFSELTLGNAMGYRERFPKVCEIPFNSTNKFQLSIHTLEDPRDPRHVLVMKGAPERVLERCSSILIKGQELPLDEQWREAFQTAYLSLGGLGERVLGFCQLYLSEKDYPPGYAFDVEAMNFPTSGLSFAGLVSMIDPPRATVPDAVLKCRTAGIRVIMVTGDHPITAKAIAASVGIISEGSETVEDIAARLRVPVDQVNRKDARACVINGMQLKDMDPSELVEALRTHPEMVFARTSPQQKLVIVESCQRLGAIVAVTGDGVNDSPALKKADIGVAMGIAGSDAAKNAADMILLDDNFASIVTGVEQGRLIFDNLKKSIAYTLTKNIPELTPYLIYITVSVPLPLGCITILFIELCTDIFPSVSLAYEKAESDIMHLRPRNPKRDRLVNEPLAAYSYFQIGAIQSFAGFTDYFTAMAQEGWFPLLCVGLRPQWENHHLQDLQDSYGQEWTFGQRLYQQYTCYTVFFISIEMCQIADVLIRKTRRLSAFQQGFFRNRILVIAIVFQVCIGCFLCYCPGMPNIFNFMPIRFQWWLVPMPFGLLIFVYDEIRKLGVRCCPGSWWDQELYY", "T1 sequence (P18434 whole entry partner)": "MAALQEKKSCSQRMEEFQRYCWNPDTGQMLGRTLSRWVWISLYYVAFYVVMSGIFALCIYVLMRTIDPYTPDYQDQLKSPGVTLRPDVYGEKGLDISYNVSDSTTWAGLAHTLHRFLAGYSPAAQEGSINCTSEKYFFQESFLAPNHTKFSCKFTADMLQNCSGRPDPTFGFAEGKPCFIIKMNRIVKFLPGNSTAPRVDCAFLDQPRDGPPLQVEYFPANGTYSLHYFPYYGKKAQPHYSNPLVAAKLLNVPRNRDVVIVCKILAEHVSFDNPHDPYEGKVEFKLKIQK", "experiment": "Inhibitory Effect Test for the Activity of H^+ -K^+ -ATPase", "type": "biochemical", "conditions": "H+-K+-ATPase from the stomach of swine; preincubation pH 6.1, room temperature 30 min; reaction pH 7.4, 37° C. 30 min; read-out: IC50 (50% inhibition dosage)", "experimental": "H^+ -K^+ -ATPase (hydrogen-potassium-activated adenosine triphosphatase) (protein content: 10 mcg) which was prepared from the stomach of swine was added to PIPES-tris[buffer PIPES-tris(hydroxymethyl)-2-amino-1,3-propanediol buffer (pH=6.1) containing 2 mM of piperazine-N,N'-bis(2-ethanesulfonic acid)], then the resulting mixture was let allowed to stand at room temperature.\nEach of the test compounds was dissolved in dimethylformamide, and the dimethylformamide solution was added to the above-mentioned H^+ -K^+ -ATPase buffer solution so as to adjust the final concentration of the test compound to 1.0%. Each of thus prepared mixture was reacted at room temperature for 30 minutes.\nNext, the above-mentioned reaction mixture was divided into two portions, and to the one portion thereof was added 1 ml of 75 mM PIPES-tris buffer solution (pH=7.4) (containing 4 mM of MgCl2, 4 mM of Na2 ATP and 20 mM of KCl), on the other hand, to another portion of the reaction mixture was added 1 ml of 75 mM PIPES-tris buffer solution (pH=7.4) (containing 4 mM of MgCl2 and 4 mM of Na2 ATP), respectively. Each of these two series of sample solutions was separately reacted at 37° C. for 30 minutes. Then to each of these reaction mixtures was added 0.3 ml of 40% trichloroacetic acid to terminate the reaction, and was subjected to centrifugal separation at 3,000 rpm for 10 minutes to obtain the supernatent. Next, the inorganic phosphoric acid formed in the reaction mixture was determined by a method according to the article by C. H. Fiske and Y. Subbarow: J. Biol. Chem., Vol. 66, pages 375-400, (1925). The difference of the value obtained by substracting the quantity of inorganic phosphoric acid determined by using PIPES-tris buffer solution without containing 20 mM of KCl from the quantity of inorganic phosphoric acid determined by using PIPES-tris buffer solution containing 20 mM of KCl, was converted into as activity value of enzyme with respect to the unit protein and unit time.\nInhibitory rate (%) of each of the test compounds was obtained from the activity value of the enzyme at the respective dosages in the test groups and those of obtained from the control group, then IC50 (50% inhibition dosage of each of the test compounds) was calculated from the inhibitory rate (%)."}, "[1]": {"system": "secretion of hydrochloric acid in the stomach", "experiment": "Inhibitory Effect Test for the Secretion of Hydrochloric Acid in the Stomach", "type": "in vivo, Wistar strain male rats", "conditions": "Rattus norvegicus; Wistar male rats, pylorus ligated, histamine dihydrochloride 1 mg/kg/hour stimulated; injected into the duodenum; probit analysis; read-out: ED50 (inhibition of the secretion of hydrochloric acid)", "experimental": "Wistar strain male rats were used as test animals. The test animals were abstained from food for 24 hours, then the pyloric sphincter of the test animal was ligated under anesthetized condition with urethane (1.5 g/kg), and a perfusion cannula for the stomach was inserted into the stomach.\nThe stomach was perfused with physiological saline through a peroral catheter, and the quantity of gastric juice secreted was measured by determining the pH and by titrating the total acidity of the perfusate.\nThe secretion of gastric juice was accelerated by injecting histamine dihydrochloride as the secretion stimulant in the rate of 1 mg/kg/hour continuously through the femoral vein, then the effect of each of the compounds was tested. Each of the test compounds was dissolved in dimethylformamide, and the predetermined dosage (maximum: 30 mg/kg) of each of the test compounds was administered by injecting the test compound solution into the duodenum.\nInhibition rate (%) of the secretion of hydrochloric acid was calculated by taking the value of the hydrochloric acid secreted before the administration of each of the test compounds as the reference. ED50 value of each of the test compounds was calculated from the inhibitory rate (%) of each of the test compounds and treated mathematically by probit (probability unit) analysis."}}, "data": [{"smiles": "[O-][S+](c1nc2ccccc2[nH]1)C1CCCc2cccnc21", "note": "(centres unmarked) [Test compound 12, 8-(2-Benzimidazolyl)sulfinyl-5,6,7,8-tetrahydroquinoline]", "values": [{"measurement": "IC50", "setting": "H^+ -K^+ -ATPase", "value": 1200, "unit": "nM"}, {"measurement": "ED50", "setting": "[1]", "value": 8.5, "unit": "mg/kg"}]}, {"smiles": "[O-][S+](c1nc2ccc(Cl)cc2[nH]1)C1CCCc2cccnc21", "note": "(centres unmarked) [Test compound 20, 8-(5-Chloro-2-benzimidazolyl)sulfinyl-5,6,7,8-tetrahydroquinoline]", "values": [{"measurement": "IC50", "setting": "H^+ -K^+ -ATPase", "value": 1000, "unit": "nM"}, {"measurement": "ED50", "setting": "[1]", "value": 4.4, "unit": "mg/kg"}]}, {"smiles": "Cc1ccc2nc([S+]([O-])C3CCCc4cccnc43)[nH]c2c1", "note": "(centres unmarked) [Test compound 17, 8-(5-Methyl-2-benzimidazolyl)sulfinyl-5,6,7,8-tetrahydroquinoline]", "values": [{"measurement": "IC50", "setting": "H^+ -K^+ -ATPase", "value": 1900, "unit": "nM"}, {"measurement": "ED50", "setting": "[1]", "value": 17.2, "unit": "mg/kg"}]}, {"smiles": "COc1c(C)cnc2c1CCCC2[S+]([O-])c1nc2ccc(F)cc2[nH]1", "note": "(centres unmarked) [Test compound 34, 3-Methyl-4-methoxy-8-(5-fluoro-2-benzimidazolyl)sulfinyl-5,6,7,8-tetrahydroquinoline]", "values": [{"measurement": "IC50", "setting": "H^+ -K^+ -ATPase", "value": 220, "unit": "nM"}]}, {"smiles": "COc1c(C)cnc2c1CCCC2[S+]([O-])c1nc2cc(Cl)c(Cl)cc2[nH]1", "note": "(centres unmarked) [Test compound 41, 3-Methyl-4-methoxy-8-(5,6-dichloro-2-benzimidazolyl)sulfinyl-5,6,7,8-tetrahydroquinoline]", "values": [{"measurement": "IC50", "setting": "H^+ -K^+ -ATPase", "value": 99, "unit": "nM"}]}, {"smiles": "Cc1cnc2c(c1)CCCC2[S+]([O-])c1nc2ccc(C(F)(F)F)cc2[nH]1", "note": "(centres unmarked) [Test compound 27, 3-Methyl-8-(5-trifluoromethyl-2-benzimidazolyl)sulfinyl-5,6,7,8-tetrahydroquinoline]", "values": [{"measurement": "IC50", "setting": "H^+ -K^+ -ATPase", "value": 1500, "unit": "nM"}]}, {"smiles": "[O-][S+](c1nc2ccc(F)cc2[nH]1)C1CCCc2cccnc21", "note": "(centres unmarked) [Test compound 32, 8-(5-Fluoro-2-benzimidazolyl)sulfinyl-5,6,7,8-tetrahydroquinoline]", "values": [{"measurement": "IC50", "setting": "H^+ -K^+ -ATPase", "value": 1700, "unit": "nM"}, {"measurement": "ED50", "setting": "[1]", "value": 5.2, "unit": "mg/kg"}]}, {"smiles": "C=CCOc1c(C)cnc2c1CCCC2[S+]([O-])c1nc2cc(Cl)c(Cl)cc2[nH]1", "note": "(centres unmarked) [Test compound 5, 4-Allyloxy-8-(5,6-dichloro-2-benzimidazolyl)-sulfinyl-3-methyl-5,6,7,8-tetrahydroquinoline]", "values": [{"measurement": "IC50", "setting": "H^+ -K^+ -ATPase", "value": 310, "unit": "nM"}]}, {"smiles": "C=CCOc1c(C)cnc2c1CCCC2[S+]([O-])c1nc2cc(F)c(F)cc2[nH]1", "note": "(centres unmarked) [Test compound 2, 4-Allyloxy-8-(5,6-difluoro-2-benzimidazolyl)-sulfinyl-3-methyl-5,6,7,8-tetrahydroquinoline]", "values": [{"measurement": "IC50", "setting": "H^+ -K^+ -ATPase", "value": 1800, "unit": "nM"}]}, {"smiles": "COc1ccc2nc([S+]([O-])C3CCCc4c(OC)ccnc43)[nH]c2c1", "note": "(centres unmarked) [Test compound 24, 4-Methoxy-8-(5-methoxy-2-benzimidazolyl)-sulfinyl-5,6,7,8-tetrahydroquinoline]", "values": [{"measurement": "IC50", "setting": "H^+ -K^+ -ATPase", "value": 7600, "unit": "nM"}]}, {"smiles": "COc1ccc2nc([S+]([O-])C3CCCc4c(C)ccnc43)[nH]c2c1", "note": "(centres unmarked) [Test compound 13, 4-Methyl-8-(5-methoxy-2-benzimidazolyl)-sulfinyl-5,6,7,8-tetrahydroquinoline]", "values": [{"measurement": "IC50", "setting": "H^+ -K^+ -ATPase", "value": 1100, "unit": "nM"}]}, {"smiles": "COc1ccnc2c1CCCC2[S+]([O-])c1nc2ccc(C(F)(F)F)cc2[nH]1", "note": "(centres unmarked) [Test compound 25, 4-Methoxy-8-(5-trifluoromethyl-2-benzimidazolyl)sulfinyl-5,6,7,8-tetrahydroquinoline]", "values": [{"measurement": "IC50", "setting": "H^+ -K^+ -ATPase", "value": 2900, "unit": "nM"}]}, {"smiles": "c1ccc(CSc2nc3ncccc3[nH]2)nc1", "note": "[Test compound 47, 2-(2-Pyridylmethylthio)imidazo[4,5-b]pyridine, reference compound]", "values": [{"measurement": "IC50", "setting": "H^+ -K^+ -ATPase", "value": "> 100000", "unit": "nM"}]}, {"smiles": "COc1cc2nc([S+]([O-])C3CCCc4c3ncc(C)c4OC)[nH]c2cc1F", "note": "(centres unmarked) [Test compound 48, 3-Methyl-4-methoxy-8-(5-fluoro-6-methoxy-2-benzimidazolyl)sulfinyl-5,6,7,8-tetrahydroquinoline]", "values": [{"measurement": "IC50", "setting": "H^+ -K^+ -ATPase", "value": 310, "unit": "nM"}]}, {"smiles": "COc1c(C)cnc(C[S+]([O-])c2nc3nc(Br)ccc3[nH]2)c1C", "note": "(centres unmarked) [Test compound 45, 5-Bromo-2-[(3,5-dimethyl-4-methoxy-2-pyridyl)methylsulfinyl]imidazo[4,5-b]pyridine]", "values": [{"measurement": "IC50", "setting": "H^+ -K^+ -ATPase", "value": 2340, "unit": "nM"}]}, {"smiles": "Cc1cnc2c(c1)CCCC2[S+]([O-])c1nc2cc(C)c(C)cc2[nH]1", "note": "(centres unmarked) [Test compound 53, 3-Methyl-8-(5,6-dimethyl-2-benzimidazolyl)-sulfinyl-5,6,7,8-tetrahydroquinoline]", "values": [{"measurement": "IC50", "setting": "H^+ -K^+ -ATPase", "value": 580, "unit": "nM"}]}, {"smiles": "COc1ccc2nc([S+]([O-])C3CCCc4cc(C)cnc43)[nH]c2c1", "note": "(centres unmarked) [Test compound 26, 3-Methyl-8-(5-methoxy-2-benzimidazolyl)-sulfinyl-5,6,7,8-tetrahydroquinoline]", "values": [{"measurement": "IC50", "setting": "H^+ -K^+ -ATPase", "value": 3700, "unit": "nM"}, {"measurement": "ED50", "setting": "[1]", "value": 15.7, "unit": "mg/kg"}]}, {"smiles": "C=CCOc1c(C)cnc2c1CCCC2[S+]([O-])c1nc2cc(C)c(C)cc2[nH]1", "note": "(centres unmarked) [Test compound 4, 4-Allyloxy-8-(5,6-dimethyl-2-benzimidazolyl)-sulfinyl-3-methyl-5,6,7,8-tetrahydroquinoline]", "values": [{"measurement": "IC50", "setting": "H^+ -K^+ -ATPase", "value": 610, "unit": "nM"}]}]}
